Drawing on patent US20250376461A1, “INDAZOLE DERIVATIVES FOR TREATING TRPM3-MEDIATED DISORDERS” (Katholieke Universiteit Leuven, priority 2022, published 2025), this text covers IC50 for 17 compounds.

pIC50: −log10 of the molar value.

T1 sequence (J9SQF3 1-1709 isoform J9SQF3-12): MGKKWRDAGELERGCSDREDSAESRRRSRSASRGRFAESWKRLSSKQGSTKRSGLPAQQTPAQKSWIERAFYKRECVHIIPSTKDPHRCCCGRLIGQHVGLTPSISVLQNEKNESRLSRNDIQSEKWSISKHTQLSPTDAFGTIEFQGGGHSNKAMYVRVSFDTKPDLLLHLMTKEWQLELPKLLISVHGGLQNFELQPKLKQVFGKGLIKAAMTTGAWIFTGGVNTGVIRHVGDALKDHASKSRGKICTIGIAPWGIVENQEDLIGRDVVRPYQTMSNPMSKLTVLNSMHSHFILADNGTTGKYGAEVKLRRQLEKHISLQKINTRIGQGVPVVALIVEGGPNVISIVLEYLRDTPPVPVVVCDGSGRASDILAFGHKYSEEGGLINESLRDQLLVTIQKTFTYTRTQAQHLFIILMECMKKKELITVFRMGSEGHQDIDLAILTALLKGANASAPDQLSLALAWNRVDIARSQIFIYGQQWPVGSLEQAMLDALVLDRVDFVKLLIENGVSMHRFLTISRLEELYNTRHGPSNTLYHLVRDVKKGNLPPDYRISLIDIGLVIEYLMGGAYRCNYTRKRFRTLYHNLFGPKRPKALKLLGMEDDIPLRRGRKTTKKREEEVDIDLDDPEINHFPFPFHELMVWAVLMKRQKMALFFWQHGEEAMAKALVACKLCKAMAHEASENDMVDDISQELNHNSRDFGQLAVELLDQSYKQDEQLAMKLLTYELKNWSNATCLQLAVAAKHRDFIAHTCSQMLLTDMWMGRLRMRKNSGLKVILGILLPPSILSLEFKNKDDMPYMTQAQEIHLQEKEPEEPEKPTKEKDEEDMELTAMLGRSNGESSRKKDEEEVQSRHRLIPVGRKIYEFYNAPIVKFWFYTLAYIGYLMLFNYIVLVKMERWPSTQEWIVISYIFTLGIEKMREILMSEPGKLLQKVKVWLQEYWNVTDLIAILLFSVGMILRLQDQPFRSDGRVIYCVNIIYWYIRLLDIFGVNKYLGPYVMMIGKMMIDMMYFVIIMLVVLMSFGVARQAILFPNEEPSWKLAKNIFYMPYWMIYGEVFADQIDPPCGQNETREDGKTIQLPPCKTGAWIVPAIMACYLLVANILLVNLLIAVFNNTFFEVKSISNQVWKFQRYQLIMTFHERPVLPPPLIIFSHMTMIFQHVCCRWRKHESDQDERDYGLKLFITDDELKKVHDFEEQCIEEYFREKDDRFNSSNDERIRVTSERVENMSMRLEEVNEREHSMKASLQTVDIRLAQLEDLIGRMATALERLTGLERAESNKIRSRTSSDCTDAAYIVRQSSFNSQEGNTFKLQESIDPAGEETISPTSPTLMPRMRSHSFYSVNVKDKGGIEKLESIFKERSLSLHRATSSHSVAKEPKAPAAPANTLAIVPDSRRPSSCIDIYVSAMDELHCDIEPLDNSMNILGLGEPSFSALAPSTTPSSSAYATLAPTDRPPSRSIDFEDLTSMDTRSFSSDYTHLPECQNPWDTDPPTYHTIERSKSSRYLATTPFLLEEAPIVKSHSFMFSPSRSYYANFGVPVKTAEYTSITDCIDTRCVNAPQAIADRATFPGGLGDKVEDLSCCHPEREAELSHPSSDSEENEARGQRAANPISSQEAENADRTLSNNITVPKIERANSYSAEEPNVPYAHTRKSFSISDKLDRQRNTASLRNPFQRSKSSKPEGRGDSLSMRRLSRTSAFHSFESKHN

The experiment has as its target T1, mouse TRPM3α2 (mTRPM3) ion channel (Mus musculus, UniProt J9SQF3).
T1 construct: expressed in transfected cells; host or cells: flip-in HEK293
The experiment in a line: TRPM3 ion channel driven Ca2+ uptake, Fluo-4 AM assay, mTRPM3alpha2 overexpressing flip-in HEK293 cells stimulated with pregnenolone sulfate (50 μM). It counts as cell-based. The note with it: mTRPM3 overexpressing HEK293 cells stimulated with pregnenolone sulfate (50 μM), activity ranges A, B, C. Put shortly: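 Ca2+ influx via mouse TRPM3α2 was opened with pregnenolone sulfate (50 μM) and tracked by Fluo-4 AM fluorescence at 485/535 nm, read directly after adding about 2000 stably transfected HEK293 cells per well to compound. IC50 values come from percent inhibition scaled to vehicle and positive-control inhibitor signals.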
Turning to `Cn1nc2ccc(OCc3ccccn3)cc2c1C(=O)NCCO` [Cpd 205, N-(2-hydroxyethyl)-2-methyl-5-[(pyridin-2-yl)methoxy]-2H-indazole-3-carboxamide], the negative logarithm of the IC50 (pIC50) is below 4.70.
The same measure for `Cn1nc2ccc(OCc3ccccn3)cc2c1C(=O)NCc1ncc[nH]1` [Cpd 206, N-[(1H-imidazol-2-yl)methyl]-2-methyl-5-[(pyridin-2-yl)methoxy]-2H-indazole-3-carboxamide]: 4.70 to 6.00; for `CN(C)CC(C)(C)CNC(=O)c1c2cc(OCc3ccccn3)ccc2nn1C` [Cpd 207, N-[3-(dimethylamino)-2,2-dimethylpropyl]-2-methyl-5-[(pyridin-2-yl)methoxy]-2H-indazole-3-carboxamide]: below 4.70.
With `Cn1nc2ccc(OCc3ccccn3)cc2c1C(=O)NCC(F)(F)c1ccccc1` [Cpd 208, N-(2,2-difluoro-2-phenylethyl)-2-methyl-5-[(pyridin-2-yl)methoxy]-2H-indazole-3-carboxamide], the negative-log IC50 (pIC50) is below 4.70.
As for `Cn1nc2ccc(OCc3ccccn3)cc2c1C(=O)NCc1c(F)cccc1C(F)(F)F` [Cpd 209, N-{[2-fluoro-6-(trifluoromethyl)phenyl]methyl}-2-methyl-5-[(pyridin-2-yl)methoxy]-2H-indazole-3-carboxamide], the pIC50 is below 4.70.
In the case of `Cn1nc2ccc(OCc3ccccn3)cc2c1C(=O)NCc1cccc(OC(F)F)c1` [Cpd 210, N-{[3-(difluoromethoxy)phenyl]methyl}-2-methyl-5-[(pyridin-2-yl)methoxy]-2H-indazole-3-carboxamide], the negative-log IC50 (pIC50) is below 4.70.
As to `Cn1nc2ccc(OCc3ccccn3)cc2c1C(=O)NC1(CO)CC(F)(F)C1` [Cpd 217, N-[3,3-difluoro-1-(hydroxymethyl)cyclobutyl]-2-methyl-5-[(pyridin-2-yl)methoxy]-2H-indazole-3-carboxamide], the negative-log IC50 (pIC50) was 4.70 to 6.00.
Compound `C=C(Nc1cc(C(F)(F)F)cnc1O)c1c2cc(OCc3ccccn3)ccc2nn1C` [Cpd 218, 3-[(1-{2-methyl-5-[(pyridin-2-yl)methoxy]-2H-indazol-3-yl}ethenyl)amino]-5-(trifluoromethyl)pyridin-2-ol] showed a pIC50 below 4.70.
In turn, `Cn1nc2ccc(OCc3ccccn3)cc2c1C(=O)NC1(CO)COC(C)(C)OC1` [Cpd 219, N-[5-(hydroxymethyl)-2,2-dimethyl-1,3-dioxan-5-yl]-2-methyl-5-[(pyridin-2-yl)methoxy]-2H-indazole-3-carboxamide] had a pIC50 below 4.70.
With `Cn1nc2ccc(OCc3ccccn3)cc2c1C(=O)NC(CO)(CCF)C(N)=O` (centres unmarked) [Cpd 234, 4-fluoro-2-(hydroxymethyl)-2-({2-methyl-5-[(pyridin-2-yl)methoxy]-2H-indazol-3-yl}formamido)butanamide], the pIC50 is above 6.00.
In turn, `Cn1nc2ccc(OCc3ccccn3)cc2c1C(=O)NC(CO)Cn1ccnc1C(F)(F)F` (centres unmarked) [Cpd 242, N-{1-hydroxy-3-[2-(trifluoromethyl)-1H-imidazol-1-yl]propan-2-yl}-2-methyl-5-[(pyridin-2-yl)methoxy]-2H-indazole-3-carboxamide] showed a negative logarithm of the IC50 (pIC50) below 4.70.
Regarding `O=C1NCCn2nc3ccc(OCc4ccccc4F)cc3c21` [Cpd 256, 9-[(2-fluorophenyl)methoxy]-1H,2H,3H,4H-pyrazino[1,2-b]indazol-1-one], the negative logarithm of the IC50 (pIC50) is below 4.70.
`O=C1NCCn2nc3ccc(OCc4ccccc4)cc3c21` [Cpd 257, 9-(benzyloxy)-1H,2H,3H,4H-pyrazino[1,2-b]indazol-1-one] gave a negative logarithm of the IC50 (pIC50) below 4.70.
On to `Cn1nc2ccc(OCc3ccccn3)cc2c1C(=O)NC(CO)CO` [Cpd 259, N-(1,3-dihydroxypropan-2-yl)-2-methyl-5-[(pyridin-2-yl)methoxy]-2H-indazole-3-carboxamide], for which the pIC50 is 4.70 to 6.00.
As to `O=C1c2c3cc(OCc4ccccc4F)ccc3nn2CCN1C(CO)CO` [Cpd 260, 2-(1,3-dihydroxypropan-2-yl)-9-[(2-fluorophenyl)methoxy]-1H,2H,3H,4H-pyrazino[1,2-b]indazol-1-one], the negative logarithm of the IC50 (pIC50) is above 6.00.
On to `O=C1c2c3cc(OCc4ccccc4F)ccc3nn2CCN1CCO` [Cpd 261, 9-[(2-fluorophenyl)methoxy]-2-(2-hydroxyethyl)-1H,2H,3H,4H-pyrazino[1,2-b]indazol-1-one], for which the pIC50 is 4.70 to 6.00.
The compound `Cn1nc2ccc(OCc3ccccc3F)cc2c1C(=O)NC(CO)CO` [Cpd 262, N-(1,3-dihydroxypropan-2-yl)-5-[(2-fluorophenyl)methoxy]-2-methyl-2H-indazole-3-carboxamide] showed a pIC50 of 4.70 to 6.00.
